One assay deals with HCV GT1a(H77) replicon. The experiment in a line: HCV replicon luciferase reporter assay, genotype 1a. It counts as cell-based, HCV genotype 1a. To be noted: Hepatitis C virus, 72 h, HUH-7 cells, Renilla luciferase, 3 days incubation. The source says:
A stable HCV GT1a(H77) replicon luciferase reporter cell line (Yanagi M, Purcell RH, Emerson S U, et al. Transcripts from a single full-length cDNA clone of hepatitis C virus are infectious when directly transfected into the liver of a chimpanzee. Proc Natl Acad Sci USA 1997; 94(16):8738-8743) was generated as described previously for the genotype 1b(Con1) replicon luciferase cell line. The replicon construct was modified by introducing mutations into the genes encoding the NS3 helicase domain (proline replaced by leucine at position 1496) and NS5A (serine to isoleucine at position 2204) to improve replication in cell culture.
(§1) HCV replicon luciferase assays were developed to monitor the inhibitory effects of compounds described in the disclosure on HCV genotypes 1a and 1b viral replication. HUH-7 cells, constitutively expressing the HCV replicon, were grown in Dulbecco's Modified Eagle Media (DMEM) (Gibco-BRL) containing 10% Fetal calf serum (FCS) (Sigma) and 1 mg/mL G418 (Gibco-BRL). Compounds were serially diluted 3 folds in DMSO for a twenty-point titration and subsequently transferred to sterile 384-well tissue-culture treated plates (Corning cat #3571). The plates were then seeded with 50 μL of cells at a density of 3.0×10^3 cells/well in DMEM containing 4% FCS (final DMSO concentration at 0.5%). After 3 days incubation at 37° C., cells were analyzed for Renilla Luciferase activity using the EnduRen as substrate (Promega cat #E6485). The EnduRen substrate was diluted in DMEM and then added to the plates to a final concentration of 7.5 μM. The plates were incubated for 2 hrs at 37° C. and then read immediately for 30 seconds with Viewlux Imager (PerkinElmer) using a luminescence program. To assess cytotoxicity of compounds, CC50 values were generated by multiplexing the EnduRen-containing plates with Cell Titer-Blue (Promega, cat #G8082). Cell-Titer Blue (3 μL) was added to each well and incubated for 8 hrs at 37° C. The fluorescence signal from each well was read, with an excitation wavelength at 525/10 nm and an emission wavelength of 598/10 nm, using the Viewlux Imager.
(§2) The EC50 values for compounds were calculated by using a four-parameter logistic equation: y=A+[…])/(1+((C/x)^D))), where A and B denotes minimal and maximal % inhibition, respectively, C is the EC50, D is the hill slope and x represents compound concentration.
(In general: In antiviral work, replicon cells carry a viral genome segment that copies itself.)

A further assay has as its system HCV GT1b(Con1) replicon. As to the kind of experiment: HCV replicon luciferase reporter assay, genotype 1b. The class given is cell-based, HCV genotype 1b. As to conditions: Hepatitis C virus, 72 h, HUH-7 cells, Renilla luciferase, 3 days incubation.
Description: An HCV GT1b(Con1) replicon cell system was established as described by Lohmann V, Korner F, Koch J, Herian U, Theilmann L, Bartenschlager R., Science 285(5424):110-3 (1999) and modified to introduce a luciferase reporter (Krieger N, Lohmann V, and Bartenschlager R, J. Virol. 75(10):4614-4624 (2001)). cDNA encoding a humanized form of the Renilla luciferase gene, and a linker sequence fused directly to the 3′-end of the luciferase gene were introduced into the replicon construct using an Asc1 restriction site located in core, directly upstream of the neomycin marker gene. The adaptive mutation at position 1179 (serine to isoleucine) was also introduced (Blight K J, Kolykhalov, A A, Rice, C M, Science 290(5498):1972-1974). A stable cell line constitutively expressing this HCV replicon construct was generated by first linearizing plasmid DNAs with ScaI. RNA transcripts were synthesized in vitro using the T7 MegaScript transcription kit (Ambion, Austin, Tex.) according to manufacturer's directions. In vitro transcripts of the cDNA were transfected into the human hepatoma cell line, HUH-7. […] Resulting cell lines were characterized for positive and negative strand RNA production and protein production over time.
as §1, §2

Read-outs that look alike come from different tables or passages of the source.

Usually EC50 stands for the concentration at which the effect is half-maximal. For `COc1cccc(-c2cc(O[C@@H]3C[C@H]4C(=O)N[C@]5(C(=O)NS(=O)(=O)C6(C)CC6)C[C@H]5/C=C\CCC(C)C[C@@H](C)[C@H](NC(=O)OC(C)(C)C(F)(F)F)C(=O)N4C3)cc(-c3ccc(OC(C)C)cc3)n2)n1` (stereo in doubt) [Compound 1012, 1,1,1-trifluoro-2-methylpropan-2-yl ((2R,6S,7R,9R,13aS,14aR,16aS,Z)-2-((6-(4-isopropoxyphenyl)-6′-methoxy-[2,2′-bipyridin]-4-yl)oxy)-7,9-dimethyl-14a-(((1-methylcyclopropyl)sulfonyl)carbamoyl)-5,16-dioxo-1,2,3,5,6,7,8,9,10,11,13a,14,14a,15,16,16a-hexadecahydrocyclopropa[e]pyrrolo[1,2-a][1,4]diazacyclopentadecin-6-yl)carbamate], the EC50 lay within 5.01 to 35 nM in the assay with HCV GT1a(H77) replicon (read-out: LE_1a (EC50, range)) and 5.01 to 35 nM with HCV GT1b(Con1) replicon (read-out: LE_1b (EC50, range)).

For the compound `CC(C)Oc1ccc(-c2cc(O[C@@H]3C[C@H]4C(=O)N[C@]5(C(=O)NS(=O)(=O)C6(C)CC6)C[C@H]5/C=C\CC[C@@H](C)C[C@@H](C)[C@H](NC(=O)OC(C)(C)C(F)(F)F)C(=O)N4C3)cc(-c3cnccn3)n2)cc1` [Compound 1001, 1,1,1-trifluoro-2-methylpropan-2-yl ((2R,6S,7R,9R,13aS,14aR,16aS,Z)-2-((2-(4-isopropoxyphenyl)-6-(pyrazin-2-yl)pyridin-4-yl)oxy)-7,9-dimethyl-14a-(((1-methylcyclopropyl)sulfonyl)carbamoyl)-5,16-dioxo-1,2,3,5,6,7,8,9,10,11,13a,14,14a,15,16,16a-hexadecahydrocyclopropa[e]pyrrolo[1,2-a][1,4]diazacyclopentadecin-6-yl)carbamate], the EC50 in the assay on HCV GT1a(H77) replicon (read-out: LE_1a (EC50, range)) lay within 1.01 to 5 nM; with HCV GT1b(Con1) replicon (read-out: LE_1b (EC50, range)) it was 0.51 to 1 nM.

In the case of `CC(C)Oc1ccc(-c2cc(O[C@@H]3C[C@H]4C(=O)N[C@]5(C(=O)NS(=O)(=O)C6(C)CC6)C[C@H]5/C=C\CC[C@H](C)C[C@@H](C)[C@H](NC(=O)OC(C)(C)C(F)(F)F)C(=O)N4C3)cc(-c3cnccn3)n2)cc1` [Compound 1002, 1,1,1-trifluoro-2-methylpropan-2-yl ((2R,6S,7R,9S,13aS,14aR,16aS,Z)-2-((2-(4-isopropoxyphenyl)-6-(pyrazin-2-yl)pyridin-4-yl)oxy)-7,9-dimethyl-14a-(((1-methylcyclopropyl)sulfonyl)carbamoyl)-5,16-dioxo-1,2,3,5,6,7,8,9,10,11,13a,14,14a,15,16,16a-hexadecahydrocyclopropa[e]pyrrolo[1,2-a][1,4]diazacyclopentadecin-6-yl)carbamate], the EC50 with HCV GT1a(H77) replicon (read-out: LE_1a (EC50)) is 59 nM; in the assay with HCV GT1a(H77) replicon (read-out: LE_1a (EC50, range)), 35 to 359 nM; in the assay with HCV GT1b(Con1) replicon (read-out: LE_1b (EC50)) it was 11.6 nM; with HCV GT1b(Con1) replicon (read-out: LE_1b (EC50, range)) it was 5.01 to 35 nM.

As to `CC(C)Oc1ccc(-c2cc(O[C@@H]3C[C@H]4C(=O)N[C@]5(C(=O)NS(=O)(=O)C6(C)CC6)C[C@H]5/C=C\CC[C@@H](C)C[C@@H](C)[C@H](NC(=O)OC(C)(C)C(F)(F)F)C(=O)N4C3)cc(-c3cncs3)n2)cc1` [Compound 1003, 1,1,1-trifluoro-2-methylpropan-2-yl ((2R,6S,7R,9R,13aS,14aR,16aS,Z)-2-((2-(4-isopropoxyphenyl)-6-(thiazol-5-yl)pyridin-4-yl)oxy)-7,9-dimethyl-14a-(((1-methylcyclopropyl)sulfonyl)carbamoyl)-5,16-dioxo-1,2,3,5,6,7,8,9,10,11,13a,14,14a,15,16,16a-hexadecahydrocyclopropa[e]pyrrolo[1,2-a][1,4]diazacyclopentadecin-6-yl)carbamate], the EC50 was 1.01 to 5 nM in the assay on HCV GT1a(H77) replicon (read-out: LE_1a (EC50, range)) and 1.01 to 5 nM in the assay on HCV GT1b(Con1) replicon (read-out: LE_1b (EC50, range)).

On to `C[C@@H]1CC/C=C\[C@@H]2C[C@@]2(C(=O)NS(=O)(=O)C2(C)CC2)NC(=O)[C@@H]2C[C@@H](Oc3ncccc3C(F)(F)F)CN2C(=O)[C@@H](NC(=O)OC(C)(C)C)[C@H](C)C1` [Compound 1065, tert-butyl ((2R,6S,7R,9R,13aS,14aR,16aS,Z)-7,9-dimethyl-14a-(((1-methylcyclopropyl)sulfonyl)carbamoyl)-5,16-dioxo-2-((3-(trifluoromethyl)pyridin-2-yl)oxy)-1,2,3,5,6,7,8,9,10,11,13a,14,14a,15,16,16a-hexadecahydrocyclopropa[e]pyrrolo[1,2-a][1,4]diazacyclopentadecin-6-yl)carbamate], for which the EC50 in the assay with HCV GT1b(Con1) replicon (read-out: LE_1b (EC50, range)) lay within 1.01 to 5 nM.

For the compound `C[C@@H]1CC/C=C\[C@@H]2C[C@@]2(C(=O)NS(=O)(=O)C2(C)CC2)NC(=O)[C@@H]2C[C@@H](Oc3ncccc3C(F)(F)F)CN2C(=O)[C@@H](NC(=O)OC(C)(C)C(F)(F)F)[C@H](C)C1` [Compound 1066, 1,1,1-trifluoro-2-methylpropan-2-yl ((2R,6S,7R,9R,13aS,14aR,16aS,Z)-7,9-dimethyl-14a-(((1-methylcyclopropyl)sulfonyl)carbamoyl)-5,16-dioxo-2-((3-(trifluoromethyl)pyridin-2-yl)oxy)-1,2,3,5,6,7,8,9,10,11,13a,14,14a,15,16,16a-hexadecahydrocyclopropa[e]pyrrolo[1,2-a][1,4]diazacyclopentadecin-6-yl)carbamate], the EC50 in the assay with HCV GT1b(Con1) replicon (read-out: LE_1b (EC50, range)) fell in the range of 0.51 to 1 nM.

In the case of `C[C@@H]1CC/C=C\[C@@H]2C[C@@]2(C(=O)NS(=O)(=O)C2(C)CC2)NC(=O)[C@@H]2C[C@@H](Oc3nccc(Cl)c3C(F)(F)F)CN2C(=O)[C@@H](NC(=O)OC(C)(C)C(F)(F)F)[C@H](C)C1` [Compound 1067, 1,1,1-trifluoro-2-methylpropan-2-yl ((2R,6S,7R,9R,13aS,14aR,16aS,Z)-2-((4-chloro-3-(trifluoromethyl)pyridin-2-yl)oxy)-7,9-dimethyl-14a-(((1-methylcyclopropyl)sulfonyl)carbamoyl)-5,16-dioxo-1,2,3,5,6,7,8,9,10,11,13a,14,14a,15,16,16a-hexadecahydrocyclopropa[e]pyrrolo[1,2-a][1,4]diazacyclopentadecin-6-yl)carbamate], the 50% effective concentration (EC50) in the assay on HCV GT1b(Con1) replicon (read-out: LE_1b (EC50, range)) was in the range of 0.1 to 0.5 nM.

`COc1cccc(O[C@@H]2C[C@H]3C(=O)N[C@]4(C(=O)NS(=O)(=O)C5(C)CC5)C[C@H]4/C=C\CC[C@@H](C)C[C@@H](C)[C@H](NC(=O)OC(C)(C)C(F)(F)F)C(=O)N3C2)n1` [Compound 1068, 1,1,1-trifluoro-2-methylpropan-2-yl ((2R,6S,7R,9R,13aS,14aR,16aS,Z)-2-((6-methoxypyridin-2-yl)oxy)-7,9-dimethyl-14a-(((1-methylcyclopropyl)sulfonyl)carbamoyl)-5,16-dioxo-1,2,3,5,6,7,8,9,10,11,13a,14,14a,15,16,16a-hexadecahydrocyclopropa[e]pyrrolo[1,2-a][1,4]diazacyclopentadecin-6-yl)carbamate]: the EC50 in the assay with HCV GT1b(Con1) replicon (read-out: LE_1b (EC50, range)) lay within 1.01 to 5 nM.

Turning to `C[C@@H]1CC/C=C\[C@@H]2C[C@@]2(C(=O)NS(=O)(=O)C2(C)CC2)NC(=O)[C@@H]2C[C@@H](Oc3ncccc3Cl)CN2C(=O)[C@@H](NC(=O)OC(C)(C)C(F)(F)F)[C@H](C)C1` [Compound 1069, 1,1,1-trifluoro-2-methylpropan-2-yl ((2R,6S,7R,9R,13aS,14aR,16aS,Z)-2-((3-chloropyridin-2-yl)oxy)-7,9-dimethyl-14a-(((1-methylcyclopropyl)sulfonyl)carbamoyl)-5,16-dioxo-1,2,3,5,6,7,8,9,10,11,13a,14,14a,15,16,16a-hexadecahydrocyclopropa[e]pyrrolo[1,2-a][1,4]diazacyclopentadecin-6-yl)carbamate], the EC50 in the assay on HCV GT1b(Con1) replicon (read-out: LE_1b (EC50, range)) fell in the range of 0.1 to 0.5 nM.

(Values after patent US9334279B2, “Hepatitis C virus inhibitors” (BRISTOL-MYERS SQUIBB COMPANY, priority 2012, dated 2016).)
